31 molecules from ChEMBL document CHEMBL1123713, “Synthesis and calcium channel antagonist activity of dialkyl 4- (dihydropyridinyl)-1,4-dihydro-2,6-dimethyl-3,5-pyridinecarboxylates” (J Med Chem, 1987) can be followed below.

The structures appear in SMILES notation.
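Throughout, for ID50: blockade of Ca2+-dependent contraction driven by muscarinic receptors in longitudinal smooth muscle strips of guinea pig ileum.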

One data set has as its target Voltage-gated L-type calcium channel (Homo sapiens, UniProt Q13936+Q13698+Q01668+O60840). The data set is described as follows: Negative log antagonist concentration causing 50% displacement of [3H]nifedipine from guinea pig ileal smooth muscle membrane. It counts as tissue-based, Cavia porcellus, Muscle tissue. As to conditions: target entry is the homologue from another species.
Take `COC(=O)C1=C(C)NC(C)=C(C(=O)OC)C1c1ccccc1[N+](=O)[O-]` [NIFEDIPINE]: the “-Log KD50” value came to 9.08.

Another data set is filed under the species Cavia porcellus. Put plainly: Negative logarithm antagonist concentration causing 50% inhibition of tonic CD response in the guinea pig ileal longitudinal smooth muscle preparation. The data set is classed as functional, Muscle tissue.
Conditions: not given
Consider `CC1=NC(C)=C(C(=O)OC(C)C)C(C2=CC=CN(C(=O)Oc3ccccc3)C2)/C1=C(\O)OC(C)C` (stereo not given), for which the “-Log ID50” value is recorded as 5.78.

Turning to `COC(=O)C1=C(C)N=C(C)/C(=C(/O)OC)C1C1=CC=CN(C(=O)OC(C)(C)C)C1` (stereo not given), the “-Log ID50” value was found to be 5.24.

Regarding `COC(=O)C1=C(C)N=C(C)/C(=C(/O)OC)C1C1=CC=CN(C(=O)OC)C1` (stereo not given), the “-Log ID50” value amounted to 6.23. The same measure, in the same setting: with `COC(=O)C1=C(C)N=C(C)/C(=C(/O)OC)C1C1=CC=CN(C(=O)Oc2ccccc2)C1` (stereo not given) the figure was 5.43.

The next data set concerns the target Muscarinic acetylcholine receptor (Homo sapiens) (UniProt P20309+P08173+P11229+P08172+P08912). As to conditions: Cavia porcellus.
Description: Inhibition of muscarinic receptor mediated [Ca2+] dependent contraction of guinea pig ileal longitudinal smooth muscle.
The molecule `COC(=O)N1C=CC=C(C2C(C#N)=C(C)NC(C)=C2C#N)C1` gave an ID50 of 33.9 µM. Same read-out and setting: under `CC1=NC(C)=C(C(=O)OC(C)C)C(C2=CC=CN(C(=O)Oc3ccccc3)C2)/C1=C(\O)OC(C)C` (stereo not given) stands 1.67 µM; under `CO/C(O)=C1\C(C)=NC(C)=C(C(=O)OC(C)C)C1C1=CC=CN(C(=O)Oc2ccccc2)C1` (stereo not given), 0.9 µM; under `COC(=O)N1C=CC=C(C2C(C(=O)OCC(C)C)=C(C)N=C(C)/C2=C(/O)OC)C1` (stereo not given), 0.031 µM.

Molecule `CO/C(O)=C1\C(C)=NC(C)=C(C(=O)OCC(C)C)C1C1=CC=CN(C(=O)Oc2ccccc2)C1` (stereo not given) registered an ID50 of 0.045 µM.

On to `CCOC(=O)C1=C(C)N=C(C)/C(=C(/O)OCC)C1C1=CC=CN(C(=O)OC(C)(C)C)C1` (stereo not given), for which the ID50 came out at 0.672 µM. Still for that read-out and setting: under `COC(=O)N1C=CC=C(C2C(C(=O)OCC(C)C)=C(C)N=C(C)/C2=C(/O)OCC(C)C)C1` (stereo not given) stands 0.771 µM; under `CO/C(O)=C1\C(C)=NC(C)=C(C(=O)OCC(C)C)C1C1=CCN(C(=O)Oc2ccccc2)C=C1` (stereo not given), 81 µM; under `CCOC(=O)C1=C(C)N=C(C)/C(=C(/O)OCC)C1C1=CCN(C(=O)OC)C=C1` (stereo not given), 2.43 µM.

The molecule `CC1=NC(C)=C(C(=O)OC(C)C)C(C2=CC=CN(C(=O)OC(C)(C)C)C2)/C1=C(\O)OC(C)C` (stereo not given) registered an ID50 of 0.114 µM. Same read-out and setting: with `CC1=NC(C)=C(C(=O)OCC(C)C)C(C2=CC=CN(C(=O)OC(C)(C)C)C2)/C1=C(\O)OCC(C)C` (stereo not given) the figure was 3.42 µM; with `COC(=O)N1C=CC(C2C(C(=O)OCC(C)C)=C(C)N=C(C)/C2=C(/O)OC)=CC1` (stereo not given), 1.76 µM; with `COC(=O)C1=C(C)N=C(C)/C(=C(/O)OC)C1C1=CC=CN(C(=O)OC(C)(C)C)C1` (stereo not given), 5.77 µM. The same measure, in the same setting: with `COC(=O)N1C=CC(C2C(C(=O)OCC(C)C)=C(C)N=C(C)/C2=C(/O)OCC(C)C)=CC1` (stereo not given) the figure was 1.72 µM; with `COC(=O)N1C=CC(C2C(C(=O)OC(C)C)=C(C)N=C(C)/C2=C(/O)OC(C)C)=CC1` (stereo not given), 1.01 µM.

Regarding `CC1=NC(C)=C(C(=O)OCC(C)C)C(C2=CC=CN(C(=O)Oc3ccccc3)C2)/C1=C(\O)OCC(C)C` (stereo not given), the ID50 amounted to 6.46 µM. Still for that read-out and setting: with `COC(=O)N1C=CC=C(C2C(C(=O)OC(C)C)=C(C)N=C(C)/C2=C(/O)OC(C)C)C1` (stereo not given) the figure was 0.131 µM; with `COC(=O)N1C=CC=C(C2C(C#N)=C(C)N=C(C)/C2=C(/O)OC)C1` (stereo not given), 51.6 µM; with `COC(=O)C1=C(C)N=C(C)/C(=C(/O)OC)C1C1=CC=CN(C(=O)OC)C1` (stereo not given), 0.589 µM. On the same count and under the same terms, under `CCOC(=O)C1=C(C)N=C(C)/C(=C(/O)OCC)C1C1=CC=CN(C(=O)Oc2ccccc2)C1` (stereo not given) stands 0.865 µM; under `CO/C(O)=C1\C(C)=NC(C)=C(C(=O)OCC(C)C)C1C1=CC=CN(C(=O)OC(C)(C)C)C1` (stereo not given), 0.128 µM. Still for that read-out and setting: with `COC(=O)N1C=CC(C2C(C#N)=C(C)NC(C)=C2C#N)=CC1` the figure was 67.5 µM. `COC(=O)C1=C(C)N=C(C)/C(=C(/O)OC)C1C1=CC=CN(C(=O)Oc2ccccc2)C1` (stereo not given) gave an ID50 of 3.69 µM.

`CC1=NC(C)=C(C(=O)OCC(C)C)C(C2=CCN(C(=O)OC(C)(C)C)C=C2)/C1=C(\O)OCC(C)C` (stereo not given) returned an ID50 of 2.03 µM.

In turn, `COC(=O)N1C=CC=C(C2C(C(=O)OC(C)C)=C(C)N=C(C)/C2=C(/O)OC)C1` (stereo not given) gave an ID50 of 0.158 µM.

As to `CO/C(O)=C1\C(C)=NC(C)=C(C(=O)OC(C)C)C1C1=CC=CN(C(=O)OC(C)(C)C)C1` (stereo not given), the ID50 was 0.237 µM.

`COC(=O)C1=C(C)N=C(C)/C(=C(/O)OC)C1C1=CCN(C(=O)OC)C=C1` (stereo not given): the ID50 came to 7.47 µM. On the same count and under the same terms, with `CO/C(O)=C1\C(C)=NC(C)=C(C(=O)OCC(C)C)C1C1=CCN(C(=O)OC(C)(C)C)C=C1` (stereo not given) the figure was 1.18 µM; with `CC1=NC(C)=C(C(=O)OCC(C)C)C(C2=CCN(C(=O)Oc3ccccc3)C=C2)/C1=C(\O)OCC(C)C` (stereo not given), 0.51 µM; with `CCOC(=O)C1=C(C)N=C(C)/C(=C(/O)OCC)C1C1=CC=CN(C(=O)OC)C1` (stereo not given), 0.18 µM.
